Values joined by “and” are separate entries in the source; they are usually repeats but may differ in a detail not shown here. Equal values may be shown once. ± gives the uncertainty stated by the source.
| viscosity (303.15 K, 101 kPa) | SMILES | viscosity (308.15 K, 101.32 kPa) [mPa·s] | viscosity (313.15 K, 101.32 kPa) [mPa·s] | viscosity (318.15 K, 101.32 kPa) [mPa·s] | viscosity (323.15 K, 101.32 kPa) [mPa·s] | viscosity (308.15 K, 101 kPa) | viscosity (313.15 K, 101 kPa) [mPa·s] | viscosity (323.15 K, 101 kPa) [mPa·s] |
| --- | --- | --- | --- | --- | --- | --- | --- | --- |
|  | C#CC(C)(C)O | 2.09 ± 0.033 | 1.775 ± 0.028 | 1.551 ± 0.025 | 1.347 ± 0.022 |  |  |  |
| 19.6 ± 0.41 mPa·s and 19.64 ± 0.5 mPa·s | CC(=O)[O-].CC[NH+](CC)CC |  |  |  |  | 16.13 ± 0.33 mPa·s and 16.13 ± 0.41 mPa·s | 14.81 ± 0.31 |  |
|  | CCOC(=O)C(=O)OCC |  |  |  |  |  | 1.361 ± 0.082 | 1.154 ± 0.07 |

— the CheMixHub viscosity set
